Results as given in PubChem BioAssay (NCI).
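Five compound concentrations were applied to cells in 96-well plates for 48 hours; endpoints were derived by simple linear interpolation of the resulting dose-response curve. GI50: concentration for 50% inhibition of growth. TGI is the concentration that stops growth completely.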

Experiments:
Assay in all cases: DTP human tumour cell line panel, 48 h
[1] = test system: 786-0 renal
[2] = test system: A498 renal
[3] = test system: A549 NSCLC
[4] = test system: ACHN renal
[5] = test system: BT-549 breast
[6] = test system: CAKI-1 renal
[7] = test system: CCRF-CEM leukemia
[8] = test system: COLO 205 colon
[9] = test system: DU-145 prostate
[10] = test system: EKVX NSCLC
[11] = test system: HCC-2998 colon
[12] = test system: HCT-116 colon
[13] = test system: HCT-15 colon
[14] = test system: HL-60(TB) leukemia
[15] = test system: HOP-62 NSCLC
[16] = test system: HOP-92 NSCLC
[17] = test system: HS 578T breast
[18] = test system: HT29 colon
[19] = test system: IGROV1 ovarian
[20] = test system: K-562 leukemia
[21] = test system: KM12 colon
[22] = test system: LOX IMVI melanoma
[23] = test system: M14 melanoma
[24] = test system: MALME-3M melanoma
[25] = test system: MCF7 breast
[26] = test system: MDA-MB-231 breast
[27] = test system: MDA-MB-435
[28] = test system: MOLT-4 leukemia
[29] = test system: NCI-H226 lung
[30] = test system: NCI-H23 lung
[31] = test system: NCI-H460 lung
[32] = test system: NCI-H522 lung
[33] = test system: NCI/ADR-RES ovarian
[34] = test system: OVCAR-3 ovarian
[35] = test system: OVCAR-4 ovarian
[36] = test system: OVCAR-5 ovarian
[37] = test system: OVCAR-8 ovarian
[38] = test system: PC-3 prostate
[39] = test system: RPMI-8226 leukemia
[40] = test system: RXF 393 renal
[41] = test system: SF-268 CNS
[42] = test system: SF-295 CNS
[43] = test system: SF-539 CNS
[44] = test system: SK-MEL-2 melanoma
[45] = test system: SK-MEL-28 melanoma
[46] = test system: SK-MEL-5 melanoma
[47] = test system: SK-OV-3 ovarian
[48] = test system: SN12C renal
[49] = test system: SNB-19 CNS
[50] = test system: SNB-75 CNS
[51] = test system: SR leukemia
[52] = test system: SW-620 colon
[53] = test system: T-47D breast
[54] = test system: TK-10 renal
[55] = test system: U251 CNS
[56] = test system: UACC-257 melanoma
[57] = test system: UACC-62 melanoma
[58] = test system: UO-31 renal

With `O=C(/C=C/C=C/c1ccccc1)c1ccco1` the GI50 [1] was 15.2 µM, the TGI [1] was 32.5 µM and the GI50 [2] was 14.3 µM. For the same molecule, the TGI [2] was 39.1 µM, the GI50 [3] was 23.8 µM and the TGI [3] was 77.4 µM. For the same molecule, the GI50 [4] was 16.9 µM, the TGI [4] was 33.5 µM and the GI50 [5] was 17.2 µM. It also gave a TGI [5] of 40.7 µM, a GI50 [6] of 16 µM and a TGI [6] of 32.8 µM. For the same molecule, the GI50 [7] was 10.2 µM, the TGI [7] was 33.3 µM and the GI50 [8] was 17.9 µM. It also gave a TGI [8] of 31.7 µM, a GI50 [9] of 12.5 µM and a TGI [9] of 25.4 µM. It also gave a GI50 [10] of 15.5 µM, a TGI [10] of 62.1 µM and a GI50 [11] of 15 µM. For the same molecule, the TGI [11] was 28.3 µM, the GI50 [12] was 12.2 µM and the TGI [12] was 25.1 µM. The GI50 [13] was 11.6 µM, the TGI [13] was 26.3 µM and the GI50 [14] was 10 µM. It also gave a TGI [14] of 97.6 µM, a GI50 [15] of 22.2 µM and a TGI [15] of 45.8 µM. For the same molecule, the GI50 [16] was 7.96 µM, the TGI [16] was 43.7 µM and the GI50 [17] was 17.5 µM. It also gave a TGI [17] of 52.9 µM, a GI50 [18] of 16.7 µM and a TGI [18] of 33.5 µM. The GI50 [19] was 18.3 µM, the TGI [19] was 37.6 µM and the GI50 [20] was 10.1 µM. It also gave a TGI [20] of 29.6 µM, a GI50 [21] of 11 µM and a TGI [21] of 24.1 µM. For the same molecule, the GI50 [22] was 13.7 µM, the TGI [22] was 27.9 µM and the GI50 [23] was 17.3 µM. For the same molecule, the TGI [23] was 34.8 µM, the GI50 [24] was 12.6 µM and the TGI [24] was 28.6 µM. It also gave a GI50 [25] of 1.24 µM, a TGI [25] of 21.6 µM and a GI50 [26] of 22.7 µM. The TGI [26] was 57.1 µM, the GI50 [27] was 13.1 µM and the TGI [27] was 29.2 µM. It also gave a GI50 [28] of 1.92 µM, a TGI [28] of 21.5 µM and a GI50 [29] of 20.7 µM. It also gave a TGI [29] of 50.2 µM, a GI50 [30] of 15 µM and a TGI [30] of 30.4 µM. For the same molecule, the GI50 [31] was 21 µM, the TGI [31] was 47.5 µM and the GI50 [32] was 13.2 µM. For the same molecule, the TGI [32] was 27 µM, the GI50 [33] was 16.4 µM and the TGI [33] was 36.7 µM. It also gave a GI50 [34] of 14.2 µM, a TGI [34] of 27.6 µM and a GI50 [35] of 23.1 µM. It also gave a TGI [35] greater than 100 µM, a GI50 [36] of 18.4 µM and a TGI [36] of 33.3 µM. The GI50 [37] was 27.1 µM, the TGI [37] was greater than 100 µM and the GI50 [38] was 16.4 µM. For the same molecule, the TGI [38] was 53 µM, the GI50 [39] was 1.81 µM and the TGI [39] was 10.7 µM. It also gave a GI50 [40] of 9.78 µM, a TGI [40] of 24.6 µM and a GI50 [41] of 18.2 µM. For the same molecule, the TGI [41] was 41.1 µM, the GI50 [42] was 13.2 µM and the TGI [42] was 34.6 µM. It also gave a GI50 [43] of 17.1 µM, a TGI [43] of 31.5 µM and a GI50 [44] of 18.8 µM. It also gave a TGI [44] of 37.3 µM, a GI50 [45] of 17 µM and a TGI [45] of 31.6 µM. It also gave a GI50 [46] of 15.9 µM, a TGI [46] of 29.4 µM and a GI50 [47] of 28.8 µM. It also gave a TGI [47] of 84.6 µM, a GI50 [48] of 16 µM and a TGI [48] of 34.9 µM. It also gave a GI50 [49] of 15.2 µM, a TGI [49] of 31.9 µM and a GI50 [50] of 18 µM. It also gave a TGI [50] of 72.5 µM, a GI50 [51] of 1.86 µM and a TGI [51] of 11.2 µM. It also gave a GI50 [52] of 13.4 µM, a TGI [52] of 28.6 µM and a GI50 [53] of 7.5 µM. The TGI [53] was 37.5 µM, the GI50 [54] was 16.9 µM and the TGI [54] was 40.1 µM. It also gave a GI50 [55] of 12.4 µM, a TGI [55] of 24.9 µM and a GI50 [56] of 21.8 µM. For the same molecule, the TGI [56] was 60.7 µM, the GI50 [57] was 14.6 µM and the TGI [57] was 28.4 µM. For the same molecule, the GI50 [58] was 10.6 µM and the TGI [58] was 22.6 µM.
